Molecular target: T1, ShaI/KChIP (Drosophila melanogaster, UniProt P17971)
T1 construct: expressed in transfected cells; subclone 18-13-20
T1 sequence (P17971 with tags, fused parts or gaps isoform P17971-1): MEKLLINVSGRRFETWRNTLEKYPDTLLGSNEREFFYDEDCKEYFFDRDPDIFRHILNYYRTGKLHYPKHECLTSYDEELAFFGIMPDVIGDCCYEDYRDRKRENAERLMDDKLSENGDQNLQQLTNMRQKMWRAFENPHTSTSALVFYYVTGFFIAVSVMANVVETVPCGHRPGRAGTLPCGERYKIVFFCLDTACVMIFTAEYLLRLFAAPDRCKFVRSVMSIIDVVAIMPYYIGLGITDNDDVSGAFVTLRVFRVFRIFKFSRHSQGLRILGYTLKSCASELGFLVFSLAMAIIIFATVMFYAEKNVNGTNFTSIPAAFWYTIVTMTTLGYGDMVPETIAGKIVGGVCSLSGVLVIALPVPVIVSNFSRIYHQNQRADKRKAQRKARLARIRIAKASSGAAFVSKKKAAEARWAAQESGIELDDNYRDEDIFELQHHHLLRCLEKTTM
Experiment: Whole-cell patch clamp on ShaI/KChIP 20 cells
Assay type: cell-based
Conditions: 100 uM [final], incubation five minutes
Experimental: Chinese hamster ovary (CHO) cells transfected with (a) a Drosophila ShaI gene (b) a Drosophila ShaI pore mutant gene and (c) a Drosophila ShaI+KChIP gene, and were used for all measurements. Cells were plated in 35 mm Petri dishes 2-6 hours before the experiment.
Data were acquired and analyzed using pClamp software (version 9.0.1.16). The whole-cell configuration of the patch-clamp technique was used to voltage clamp cells at room temperature (22-25° C.). Pipettes were pulled from borosilicate glass capillaries (#8250, Garner Glass, Claremont, Calif.) using a DMZ Universal Puller (Zeitz, Munich, Germany) and had resistances of 1-2 MOhm when filled with pipette solution and measured in bath solution. The liquid junction potential between bath and pipette solution was always compensated before the formation of a gigaohm seal.
Membrane current was measured under whole-cell clamp, sampled at 2 kHz and filtered at 1 kHz by an Axoclamp 200B (Axon Instruments). […]
To study ShaI currents on CHO cells, cells were held at −70 mV and a family of 500 ms test voltage pulses was applied starting from −70 to +70 mV, or +100 mV, in 10 mV increments. The amplitude, as measured for the current-voltage relationship, was defined as the maximal current at a given membrane potential. […]
FIG. 13: ShaI/KChIP inhibited by arachidonic acid. […] Pre- and post-compound currents were measured under whole-cell clamp. […]

- inhibition of total ShaI/KChIP current: Complete inhibition
SMILES: CCCCC/C=C\C/C=C\C/C=C\C/C=C\CCCC(=O)O [arachidonic acid]

— patent publication US9029080B2, “Screening assay for insecticides” (priority 2008, dated 2015)
